Series [1] in a line: Test 4: inhibition of radical production from DPPH. To be noted: tested substance 100 μM in methanol, 30 minutes, absorbance 517 nm. On the procedure: Test 4 is a colorimetric test which must not be satisfied by the precursor of B or B1 (precursor of the X2 or X2a of the formulas (I) and (II) respectively). The inhibition of the production of radicals from DPPH (2,2-diphenyl-1-picryl-hydrazyl) is described in M. S. Nenseter et Al., Atheroscler. Thromb. 15, 1338-1344, 1995. 100 μM solutions in methanol of the tested substances are prepared, and an aliquot of each of said solutions is added to a DPPH solution in methanol 0.1 M. After having stored the solutions at room temperature away from light for 30 minutes, their absorbances are read at the wave length of 517 nm, together with that of the corresponding DPPH solution at the same concentration. The absorbance decrease with respect to that of the solution of DPPH at the same concentration of the test solutions is determined. The effectiveness of the tested compound in inhibiting formation of radicals by DPPH is expressed by the following formula: (1−AS/AC)×100 wherein AS and AC are respectively the absorbance values of the solution containing the test compound together with DPPH and of the solution containing only DPPH. Test 4 is satisfied when the inhibition is equal or greater than 50%.
Test 4: Inhibition of the Radical Production from DPPH of Some Substances Used as Precursors of B or B1 (Ref. Formulas I and II of the Invention)
The method is based on a calorimetric test in which DPPH (2,2-diphenyl-1-picryl-hydrazyl) is used as the compound-forming radicals (M. S. Nenseter et Al., Atheroscler. Thromb. 15, 1338-1344, 1995).
Solutions in methanol of the tested substances at a final concentration 100 μM are initially prepared. 0.1 ml of each of these solutions are added to aliquots of 1 ml of a methanol solution 0.1 M of DPPH and then the final volume is brought to 1.5 ml. After having stored the solutions at room temperature away from light for 30 minutes, the absorbance at the wave length of 517 nm is read. It is determined the absorbance decrease with respect to the absorbance of a solution containing the same concentration of DPPH.
The efficacy of the test compound to inhibit the production of radicals, or antiradical activity, is expressed by the following formula: (1−AS/AC)×100 wherein AS and AC are, respectively, the absorbance values of the solution containing the test compound together+DPPH and of the solution containing only DPPH.

The test system of series [2] is Human endothelial cells of the umbilical vein. Put plainly: Test 2 (CIP): apoptosis (DNA fragmentation) induced by cumene hydroperoxide in endothelial cells. It counts as cell-based. To be noted: for activity at 100 µM: Homo sapiens, Endothelial cell, 1 h, read-out: Apoptosis % with respect to the controls treated only with CIP; for inhibition of apoptosis induced by CIP (in words, t Student p<0.01): CIP 5 mM.
Protocol: Test 2 (CIP): Protection parameter of endothelial cell against the oxidative stress induced by cumene hydroperoxide (CIP).
Human endothelial cells of the umbilical vein are prepared according to an usual standard procedure. Fresh umbilical veins are filled with a 0.1% by weight collagenase solution and incubated at 37° C. for 5 minutes.
The cells are collected from the perfusate by centrifugation and harvested in culture flasks T-75, pretreated with human fibronectin. The cells are then harvested in the same medium, further added with 10 ng/ml of bovine hypothalamic growth factor. When the cells of the primary cell culture (i.e. that directly obtained from ex-vivo) form a single layer of confluent cells (about 8,000,000 cells/flask), the culture is stopped and the layers washed and trypsinized. The cellular suspensions are transferred into the wells of a cell culture plate having 24 wells, half of which is then additioned with the same culture medium containing the drug at a 10^−4M concentration, and harvested in a thermostat at 37° C. at a constant moisture. Only the cells coming from said first sub-cultures are used for the experiments with cumene hydroperoxide (CIP).
Before starting the test, the cellular culture medium is removed and the cellular layers are carefully washed with a physiologic solution at a temperature of 37° C. The wells of the culture plate are then incubated for one hour with CIP at a 5 mM concentration in the culture medium. […] 5 replicates for each sample are carried out.
Human endothelial cells of the umbilical vein are prepared according to a standard method. Fresh umbilical veins are filled with a collagenase solution 0.1% by weight and incubated at 37° C. for 5 minutes.
The cells are collected from the perfusate by centrifugation at 800 rpm and harvested in culture flasks T-75, pretreated with human fibronectin. Cells are then harvested in the same medium, added with bovine hypothalamic growth factor (100 ng/ml). When the cells of the primary cell culture (the cells directly removed from ex-vivo umbilical vein) form a single layer of confluent cells (about 8,000,000 cells/flask), harvesting is stopped and the layers are washed and trypsinized. The cellular suspensions are transferred into wells of a culture plate having 24 wells, half of said wells being added with the same culture medium containing the drug at a 10^−4M concentration, and harvested in a thermostat at 37° C. at a constant moisture (90%), CO2=5%. When the drug is not soluble in the culture medium, it is formerly dissolved in a small amount of dimethylsulphoxide. The maximum amount of dimethylsulphoxide which can be added to the culture medium is 0.5%. Only the cells coming from these first subcultures are used for the tests with cumene hydroperoxide (CIP). The cells are identified as endothelial cells by morphological examination and by the specific immunological reaction towards factor VIII; these cultures did never show contaminations from myocytes or fibroblasts.
Before starting the test, the cellular culture medium is removed and the cellular layers are carefully washed with a standard physiologic solution buffered with phosphate 0.1 M pH 7.0, at the temperature of 37° C. The content of each well is then incubated for one hour with a CIP suspension in the culture medium at a 5 mM concentration. Evaluation of the cellular damage (apoptosis) is carried out by determining the percent variation of the DNA fragmentation in the cultures containing the drug+CIP with respect to the controls treated with CIP only. […] The fluorescence of each sample was determined on 5 replicates. Statistic evaluation has been made with t Student test (p<0.01).

Series [3] relates to gastric mucosa. Put plainly: Example F6: gastric tolerability of invention compounds versus precursor drugs, with or without L-NAME. It counts as in vivo, rats. From the text:
Gastric Tolerability Test of the Compounds According to the Invention in the Confront of the Corresponding Precursor Drugs in Conditions of Endothelial Dysfunctions Induced by L-NAME (N^w-nitro-L-arginine-methyl ester).

The subject of series [4] is gastrointestinal mucosa. Nature of the series: Test 1 (NEM): gastric tolerability of precursor drugs in rats treated or not with N-ethylmaleimide. The settings on record: rat, in vivo, 24 h. On the procedure:
The animals (rats) are distributed in the following groups (no. 10 animals for group):
• 1° group: treatment: only carrier (aqueous suspension 1% w/v of carboxymethylcellulose, dose: 5 ml/Kg when the drug is administered by os, or a physiologic solution when parenterally administered, i.e. by subcutaneous, intraperitoneal, intravenous or intramuscular route), • 2° group: treatment: carrier as above defined+NEM, B) Groups Treated with the Drug: • group I: treatment: carrier+drug, • group II: treatment: carrier+drug+NEM.
The administration routes are those known for the drug, and can be the oral or subcutaneous, intraperitoneal, intravenous or intramuscular route.
The animals are sacrificed after 24 hours and then one proceeds to the evaluation of the damage to the gastrointestinal mucosa.
Test 1—Experimental Model in Vivo with N-ethylmaleimide (NEM): Study of the Gastric Tolerability of Some Drugs Screened as Precursors of the Compounds of the Invention.
The animals (rats, weight about 200 g) are distributed in the following groups (No. 10 animals for group):
• 1° group: treatment: only carrier (aqueous suspension 1% w/v of carboxymethylcellulose, dose: 5 ml/Kg when the drug is administered by os, physiologic solution when by parenteral route), • 2° group: treatment: carrier+NEM B) Groups Administered with Each Drug: • group I: treatment: carrier+drug, • group II: treatment: carrier+drug+NEM.
The drug is administered one hour later, in suspension in the carrier. Animals are sacrificed after 24 hours and evaluation of the damage to the gastrointestinal mucosa is made by counting the number of rats, inside each group, with lesions to the stomach at a visual inspection. The total number of said rats is then divided by the total number of rats of the group and multiplied by 100.

The mark [5] stands for this setting: drug 10^-4 M, CIP 5 mM for one hour, DNA fragmentation.
Where [6] appears, read: rats, dose and route as in the column beside (higher doses than in L-NAME animals).

Structures are written as SMILES. Entries after “also recorded” stand apart in the source; their conditions may differ. Like-named read-outs stand apart in the source and are kept apart here.

`O=C1NC(C(=O)O)CS1` (stereo not shown) [2-oxo-4-thiazolidin carboxylic acid]: the “% inhibition radical production from DPPH” value in series [1] was determined as 0%.
For `Nc1nc2c(ncn2COCCO)c(=O)[nH]1` [Aciclovir], in series [2] (setting [5]), the activity at 100 µM was 95%. In addition, in series [2] (drug 10^-4 M), the “inhibition of apoptosis induced by CIP (in words, t Student p<0.01)” value (shortened to “inhibition … (in words, t Student p<0.01)”) is reported as “do not significantly inhibit apoptosis”.
Regarding `NCCCC(O)(P(=O)(O)O)P(=O)(O)O` [Alendronate], in series [3] (rat, in vivo, 4 weeks), the “% gastropathy, animals not treated with L-NAME” value was found to be 90% and the “% gastropathy, animals treated with L-NAME” value was determined as 70%. For the same molecule, the “inhibition … (in words, t Student p<0.01)” value in series [2] (drug 10^-4 M) is “do not significantly inhibit apoptosis”. In addition, the “Gastro-enteropathy (% incidence) without NEM” value in series [4] is listed as 0%.
`CC1(C)S[C@@H]2[C@H](NC(=O)[C@H](N)c3ccccc3)C(=O)N2[C@H]1C(=O)O` [Ampicilline]: the activity at 100 µM in series [2] (setting [5]) was 94%. Also, the “inhibition … (in words, t Student p<0.01)” value in series [2] (drug 10^-4 M) is reported as “do not significantly inhibit apoptosis”.
In the same order, the values of `O=C(O)COCCN1CCN(C(c2ccccc2)c2ccc(Cl)cc2)CC1` (stereo not shown) [Cetirizine] are 115% and “do not significantly inhibit apoptosis”.
Consider `N[C@@H](CS)C(=O)O` [Cisteine], for which the “% inhibition radical production from DPPH” value in series [1] is listed as 100%.
As for `COC(=O)[C@H](c1ccccc1Cl)N1CCc2sccc2C1` [Clopidogrel], in series [2] (setting [5]), the activity at 100 µM was found to be 110%. In addition, the “inhibition … (in words, t Student p<0.01)” value in series [2] (drug 10^-4 M) is “do not significantly inhibit apoptosis”.
Take `O=C(O)Cc1ccccc1Nc1c(Cl)cccc1Cl` [Diclofenac]: in series [3] (rat, in vivo, 4 weeks), the “% gastropathy, animals not treated with L-NAME” value came out at 70% and the “% gastropathy, animals treated with L-NAME” value was 100%.
For the molecule `Cn1c(=O)c2c(ncn2CC(O)CO)n(C)c1=O` (stereo not shown) [Diphylline], in series [2] (drug 10^-4 M), the “inhibition … (in words, t Student p<0.01)” value is listed as “do not significantly inhibit apoptosis”. The “Apoptosis % with respect to the controls treated only with CIP” value in series [2] (setting [5]) was 95%.
For `CCOC(=O)[C@H](CCc1ccccc1)N[C@@H](C)C(=O)N1CCC[C@H]1C(=O)O` [Enalapril], the activity at 100 µM in series [2] (setting [5]) was 80%. The “inhibition … (in words, t Student p<0.01)” value in series [2] (drug 10^-4 M) was “do not significantly inhibit apoptosis”.
For `O=C(Cc1ccccc1Nc1c(Cl)cccc1Cl)NC(Cc1c[nH]cn1)C(=O)OCCCCO[N+](=O)[O-]` (stereo not shown) [Example 4, [2-[(2,6-dichlorophenyl)amino]-benzeneacetyloxy]-(L)-histidine 4-(nitroxy)butyl ester], the “% gastropathy, animals treated with L-NAME” value in series [3] (rats, L-NAME) came to 0%. Further, the “% gastropathy, animals not treated with L-NAME” value in series [3] (setting [6]) came out at 0%.
With `O=C(CCC(=O)OCCCCO[N+](=O)[O-])Nc1c2c(nc3ccccc13)CCCC2` [Example 5], the “% gastropathy, animals treated with L-NAME” value in series [3] (rats, L-NAME) stood at 0%. In addition, the “% gastropathy, animals not treated with L-NAME” value in series [3] (setting [6]) is given as 20%.
Regarding `O=C(CCC(=O)OCCCCO[N+](=O)[O-])NCCCC(O)(P(=O)(O)O)P(=O)(O)O` [Example 6, [4-amino-[4-oxo-(4-nitroxybutyloxy)butanoyl]-1-hyroxybutyliden] biphosphonic acid], the “% gastropathy, animals treated with L-NAME” value in series [3] (rats, L-NAME) is given as 10%. For the same molecule, the “% gastropathy, animals not treated with L-NAME” value in series [3] (setting [6]) is reported as 20%.
As for `Nc1c(Br)cc(Br)cc1CNC1CCC(OC(=O)CCC(=O)OCCCCO[N+](=O)[O-])CC1` (stereo not shown) [Example 7, [4-oxo-(4-nitroxybutyloxy)butanoyl4-(2-amino-3,5-dibromophenyl)-methylamino] cyclohexanol ester], in series [3] (rats, L-NAME), the “% gastropathy, animals treated with L-NAME” value worked out at 0%. Besides, in series [3] (setting [6]), the “% gastropathy, animals not treated with L-NAME” value worked out at 10%.
On to `COc1cc(/C=C/C(=O)O)ccc1O` [Ferulic acid], for which, in series [1], the “% inhibition radical production from DPPH” value was determined as 100%.
For `O=C(O)c1cc(O)ccc1O` [Gentisic acid], the “% inhibition radical production from DPPH” value in series [1] is given as 80%.
Take `Nc1ccc(O)c(C(=O)O)c1` [Mesalamine]: the “inhibition … (in words, t Student p<0.01)” value in series [2] (drug 10^-4 M) is on record as “inhibit apoptosis; also recorded: inhibits the apoptosis induced by CIP”. In addition, in series [4], the “Gastro-enteropathy (% incidence) without NEM” value was determined as 0%.
As for `CC(=O)N[C@@H](CS)C(=O)O` [N-acetylcisteine], the “% inhibition radical production from DPPH” value in series [1] (listed as N-acetylcysteine) is listed as 100%.
With `NC(=O)c1cccnc1` [Nicotinamide], the “inhibition … (in words, t Student p<0.01)” value in series [2] (drug 10^-4 M) is “do not significantly inhibit apoptosis”.
Still for that read-out and setting: the entry for `CC(=O)Nc1ccc(O)cc1` [Paracetamol] is “do not significantly inhibit apoptosis; also recorded: not significantly different with respect to that of the controls”; for `CC(C)(C)NCC(O)c1ccc(O)c(CO)c1` (stereo not shown) [Salbutamol] it is “do not significantly inhibit apoptosis”.
Consider `CCC(C)(C)C(=O)O[C@H]1C[C@@H](C)C=C2C=C[C@H](C)[C@H](CC[C@@H]3C[C@@H](O)CC(=O)O3)[C@H]21` [Simvastatine], for which the activity at 100 µM in series [2] came to 72%.

These data come from patent publication US7402600B2, “Nitroderivatives of cardiovascular agents” (NicOx S.A., priority 1999, dated 2008).
